Patent US11426473B2, “Nitrogen-containing compound or salt thereof, or metal complex thereof” (FUJIFILM Corporation, priority 2013, dated 2022)

Assays:
[1] = Absorbed doses in each organ in humans calculated with OLINDA/EXM 1.0 from monkey organ distribution; format: in vivo; conditions: calculated with OLINDA/EXM 1.0 from monkey imaging with [111In]-(P2)
Method: (§1) Blood kinetic parameters were calculated with OLINDA/EXM 1.0 from the blood concentration of radioactivity by blood collection over time from a cynomolgus monkey using [^111In]-(P2). Also, absorbed doses in each organ in the case of administration to humans were calculated with OLINDA/EXM 1.0 from organ distribution by imaging using [^111In]-(P2). The radiolabeled compound [^111In]-(P2) (98 MBq/[…]) was administered to a cynomolgus monkey (Hamri Co., Ltd., male, 3 years old, 3.4 kg) under anesthesia. After the administration, blood collection and imaging with a gamma camera were performed over time. The blood collection was carried out 10 minutes, 30 minutes, 60 minutes, 2 hours, 4 hours, 5 hours, 6 hours, 24 hours, 48 hours, 72 hours, and 144 hours after administration. The imaging was carried out 1, 2, 4, 6, 24, 48, 72, and 144 hours after administration with a gamma camera (Symbia, Siemens AG) to take planar images. The anesthesia was carried out using 20 mg/kg ketamine before administration of [^111In]-(P2) and maintained by inhalation anesthesia (2 to 3% isoflurane, 5 to 8 L/min) until the completion of the imaging at 6 hours after administration. At or after 24 hours after administration, blood collection and imaging were performed by the introduction of 20 mg/kg ketamine and 2 mg/kg xylazine. […] The blood kinetic parameters are shown below.

[2] = system: U87MG cells subcutaneous tumor; assay: Imaging of integrin-expressing tumor by PET; format: in vivo; conditions: at the time of anatomy (48 hours after administration), 4.8 MBq/mouse tail vein
Method: U87MG cells were subcutaneously transplanted at 1×10^7 cells/mouse to the right flank of Balb/cAJcl-nu/nu (CLEA Japan, Inc. or Japan SLC, Inc., male, 6 to 9 weeks old). After 2 weeks, the radiolabeled compound [^64Cu]-(P2) was administered at 4.8 MBq/mouse to the tail veins of mice whose tumors became 250 to 650 mm^3. After 1, 4, 24, and 48 hours, the images were taken in microPET/CT (Inveon, Siemens AG) under isoflurane anesthesia. After the imaging at 48 hours after administration, the mice were euthanized by the collection of the whole blood from the postcava under deep anesthesia with isoflurane, followed by tumor extraction. The weights of the tumors were measured, and the radioactivity was measured using a gamma counter to calculate the concentration of radioactivity in the tumors (% ID/g). In the same way as above, [^64Cu]-(Aa7), [^64Cu]-(Ab9-a), and [^64Cu]-(Ab9-b) were imaged. However, the concentration of radioactivity in the tumors was not calculated. The tumor accumulation was confirmed for all of the compounds 1 hour after administration, and the tumors were visualized up to 48 hours later. […] The concentration of radioactivity in the tumors was 5.6% ID/g at the time of anatomy (48 hours after administration).

[3] = Radiochemical purity after standing at room temperature; format: physicochemical
Method: To a mixed solution of compound (P2) (8.5 μg) and a 0.2 mol/L sodium acetate buffer solution (pH 4.0) (1.5 mL), a [^111In] indium chloride solution (80 MBq, 100 μL) was added. The mixture was heated at 100° C. for 15 minutes and then left at room temperature for 5 minutes to obtain radiolabeled compound [^111In]-(P2). […] Its radiochemical purity was 95% or more both immediately after preparation and after standing at room temperature for 24 hours.
To a mixed solution of compound (P2) (79 μg), gentisic acid (1.8 mg), a 0.6 mol/L sodium acetate buffer solution (pH 4.0, 120 μL), and a 0.4 mol/L aqueous sodium hydroxide solution (24 μL), a [^90Y] yttrium chloride solution (700 MBq, 240 μL) was added. The mixture was heated at 100° C. for 20 minutes and then left at room temperature for 5 minutes to obtain radiolabeled compound [^90Y]-(P2). […] Its radiochemical purity was 95% or more both immediately after preparation and after standing at room temperature for 24 hours.
To a mixed solution of compound (P2) ([…]) and a 0.2 mol/L sodium acetate buffer solution (pH 4.0, 219 μL), a [^64Cu] copper chloride solution (pH 5, 35 MBq, 55 μL) was added. The mixture was heated at 100° C. for 15 minutes and then left at room temperature for 5 minutes to obtain radiolabeled compound [^64Cu]-(P2). […] Its radiochemical purity was 90% or more both immediately after preparation and after standing at room temperature for 22 hours.
To a mixed solution of compound (Aa7) (4.2 μg), gentisic acid (1 mg), and a 0.2 mol/L sodium acetate buffer solution (pH 4.0) (5.0 μL), [^64Cu] copper chloride in a 0.2 mol/L sodium acetate buffer solution (pH 4.0) (40 MBq, 155 μL) was added. The mixture was heated at 100° C. for 15 minutes and then left at room temperature for 5 minutes to obtain radiolabeled compound [^64Cu]-(Aa7). […] Its radiochemical purity was 90% or more both immediately after preparation and after standing at room temperature for 24 hours.

[4] = system: U87MG cells subcutaneous tumor; assay: Concentration of radioactivity in tumor of labeled compounds (Test Example 4); format: in vivo, mouse; conditions: tail vein, 111In 740 kBq, 64Cu and 90Y 500 kBq
In short: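 Balb/cAJcl-nu/nu mice (6–9 weeks) bearing subcutaneous U87MG flank tumours (1×10^7 cells; 200–500 mm^3), 3 per time point, received ^111In-labeled (740 kBq), ^64Cu- or ^90Y-labeled compound (500 kBq) i.v. via tail vein. At set times tumours were excised, weighed and gamma-counted; uptake expressed as % ID/g.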

[5] = system: U87MG cells subcutaneous tumor; assay: Imaging of integrin-expressing tumor with gamma camera; format: in vivo; conditions: 1 MBq/mouse tail vein, 24 hours to 72 hours after administration, FIG. 6
Method: U87MG cells were subcutaneously transplanted at 1×10^7 cells/mouse to the right flank of Balb/cAJcl-nu/nu (CLEA Japan, Inc., male, 6 weeks old). After 2 weeks, a dosing solution of the radiolabeled compound [^111In]-(P2) was administered at 1 MBq/mouse to the tail veins of mice whose tumors became 300 to 600 mm^3. 24, 48, and 72 hours after administration, the planar images were taken with a gamma camera (Symbia, Siemens AG) under isoflurane anesthesia. The radioactivity in the tumors (% ID) was calculated by image analysis.

[6] = system: U87MG cells intracranial tumor; assay: Imaging of integrin-expressing tumor, intracranial tumor model; format: in vivo; conditions: 1 MBq/mouse tail vein, FIG. 7
Method: U87MG cells were intracranially transplanted at 1×10^7 cells/mouse to Balb/cAJcl-nu/nu (CLEA Japan, Inc., male, 6 weeks old) using a tapered needle. After 2 to 4 weeks, a dosing solution of the radiolabeled compound [^111In]-(P2) was administered at 1 MBq/mouse to the tail veins of the mice. 24, 48, and 72 hours after administration, the planar images were taken with a gamma camera (Symbia, Siemens AG) under isoflurane anesthesia (FIG. 7). After the imaging at the final time point, the brain was extracted, and frozen sections were prepared. Several pieces of the tumor sections were contacted with IP plates, and accumulation images were obtained by autoradiography (ARG). The serial sections were stained with hematoxylin-eosin to confirm tumors.

[7] = Time-dependent planar imaging of monkey; format: in vivo; conditions: cynomolgus monkey, from administration to 6 hours later, FIG. 9
Method: as §1, with “below. […]” for “below.”

[8] = Blood kinetic parameters in monkey; format: in vivo; conditions: cynomolgus monkey, blood radioactivity, 98 MBq
Method: as §1

Structure (SMILES) | Absorbed dose, Brain [1] [mGy/MBq] | Absorbed dose, Kidney [1] [mGy/MBq] | Absorbed dose, Liver [1] [mGy/MBq] | Absorbed dose, Lung [1] [mGy/MBq] | Absorbed dose, Red bone marrow [1] [mGy/MBq] | Absorbed dose, Small intestine [1] [mGy/MBq] | Absorbed dose, Whole body [1] [mGy/MBq] | Concentration of radioactivity in tumor ([4]; 4 hours later) [% ID/g] | Concentration of radioactivity in tumor ([4]; 24 hours later) [% ID/g] | also measured
Cc1cc(OCCCC(=O)NCCNC(=O)[C@H](CS(=O)(=O)O)NC(=O)CN2CCN(CC(=O)[O-])CCN(CC(=O)[O-])CCN(CC(=O)O)CC2)cc(C)c1S(=O)(=O)N[C@@H](CNC(=O)CCCCc1ccc2c(n1)NCCC2)C(=O)O.[64Cu+2] [[^64Cu]-(P2)] | 0.11 | 0.69 | 0.09 | 0.08 | 0.01 | 0.06 | 0.02 | 9.25 | 8.48 | concentration of radioactivity in the tumors [2]: 5.6 % ID/g; radiochemical purity after standing ([3]; immediately after preparation and after standing at room temperature for 22 hours): ≥ 90%
Cc1cc(OCCCC(=O)NCCNC(=O)[C@H](CS(=O)(=O)O)NC(=O)CN2CCN(CC(=O)[O-])CCN(CC(=O)[O-])CCN(CC(=O)[O-])CC2)cc(C)c1S(=O)(=O)N[C@@H](CNC(=O)CCCCc1ccc2c(n1)NCCC2)C(=O)O.[111In+3] [[^111In]-(P2)] | 0.25 | 1.19 | 0.19 | 0.12 | 0.05 | 0.05 | 0.05 | 11.10 | 9.62 | radiochemical purity after standing ([3]; immediately after preparation and after standing at room temperature for 24 hours): ≥ 95%; radioactivity in tumor versus other organs, planar images [5]: radioactivity was higher in the tumor than other organs; accumulation in intracranial tumor by planar imaging and ARG [6]: consistent with the tumor was confirmed; organ accumulation on planar images [7]: accumulation to the bladder and the gallbladder was increased over time; AUC [8]: 0.22 % ID · h/mL; CL [8]: 2.17 mL/min/kg; Cmax [8]: 0.018 % ID/mL; T½ α [8]: 0.46 h; T½ β [8]: 19.3 h; Vss [8]: 3.52 L/kg
